The values below come from patent publication US20170291882A1, “Solid Forms of Mirabegron” (Apotex Inc., priority 2014, published 2017).

A short description of data set [1]: Solubility testing of forms of Mirabegron (suspension stirred at room temperature, supernatant dried to constant weight). It is filed as physicochemical. On the procedure:
Solubility testing was conducted by preparing a suspension of the subject form of Mirabegron in the indicated solvent and stirring the suspension for the indicated time period at room temperature. After this time, excess solid was removed by filtration and the volume of the supernatant was recorded. The supernatant was concentrated in vacuo and dried to constant weight to afford a solid. The solubility is shown as the weight of solid/volume of supernatant in mg/mL. The α-form and β-form of Mirabegron refer to the forms as characterized in CA 2 464 068 C.
Phosphate buffer was prepared by dissolving potassium dihydrogen phosphate (340 mg) and disodium hydrogen phosphate (353 mg) in deionized water (100 mL).

The conditions of data set [2]: cited from earlier work; for hygroscopicity (in words): as disclosed in CA 2 464 068 C.
A short description of data set [3]: Hygroscopicity testing (desiccator with saturated ammonium sulphate solution, 25° C., 24 hours). The class given is physicochemical. As to conditions: 1 g, unstoppered vessel over saturated ammonium sulphate solution. On the procedure:
The hygroscopicity testing was conducted by placing 1 g of form APO-I Mirabegron in an unstoppered weighing vessel in a desiccator containing a saturated ammonium sulphate solution. The desiccator was placed in an oven at 25° C. for 24 hours. After this time, the percentage increase in mass was 0.89%.

In brackets after ≈: the same amount, converted by molar mass. Where two headings read alike, the source gives them in different places.

Take `Nc1nc(CC(=O)Nc2ccc(CCNC[C@H](O)c3ccccc3)cc2)cs1` [Form α, (R)-2-(2-aminothiazol-4-yl)-4′-[2-[(2-hydroxy-2-phenylethyl)amino]ethyl]acetanilide]: the Solubility in data set [1] (0.1M HCl, 2 hours) is 13.0 mg/mL (≈ 32.8 mM); in data set [1] (Distilled water, 2 hours, listed as α), 0.2 mg/mL (≈ 0.504 mM); in data set [1] (Ethanol (denatured), 0.5 hours, listed as α), 21.3 mg/mL (≈ 53.7 mM); in data set [1] (Phosphate buffer (pH 6.8), 2 hours, listed as α), 2.5 mg/mL (≈ 6.3 mM). In addition, in data set [2] (listed as α-form crystal), the “hygroscopicity (in words)” value is reported as “no hygroscopicity”.
In data set [1] (0.1M HCl, simulated gastric fluid, thermodynamic from solid, 2 hours), `Nc1nc(CC(=O)Nc2ccc(CCNC[C@H](O)c3ccccc3)cc2)cs1` [Form APO-I, Mirabegron] displayed a solubility at 2 h of 15 mg/mL (≈ 37.8 mM). Besides, the Solubility in data set [1] (Distilled water, 2 hours, listed as APO-I) worked out at 0.5 mg/mL (≈ 1.26 mM); in data set [1] (Ethanol (denatured), 0.5 hours, listed as APO-I) it was 62.8 mg/mL (≈ 158 mM); in data set [1] (Phosphate buffer (pH 6.8), 2 hours, listed as APO-I), 6.2 mg/mL (≈ 15.6 mM). Further, the “percentage increase in mass” value in data set [3] is listed as 0.89%.
The compound `Nc1nc(CC(=O)Nc2ccc(CCNC[C@H](O)c3ccccc3)cc2)cs1` [Form β, (R)-2-(2-aminothiazol-4-yl)-4′-[2-[(2-hydroxy-2-phenylethyl)amino]ethyl]acetanilide] yielded a Solubility in data set [1] (Ethanol (denatured), 0.5 hours, listed as β) of 27.2 mg/mL (≈ 68.6 mM). Further, in data set [2] (listed as β-form crystal), the “hygroscopicity (in words)” value is reported as “relatively low hygroscopicity”. Also, the “moisture held (hygroscopic)” value in data set [2] (reported in CA 2 464 068 C) is “up to 3%”.
